Drawing on EP1144365B1 (TANABE SEIYAKU CO., LTD., priority 1998, dated 2000), this text covers IC50 for 31 compounds.

The target of one assay is T1, α4β1 (Homo sapiens, UniProt P05556+P13612).
T1 construct: 100 µl of Jurkat cells (2.5 x 10^6 cells/ml) in DMEM plus BSA; host or cells: Jurkat T-cell line
The assay is described as follows: Jurkat-CS-1 assay. The assay is classed as cell-based. The note with it: Jurkat cell adhesion to immobilized CS-1 derived peptide. On the procedure:
The CS-1 derived peptide, CLHPGEILDVPST, and the scrambled control peptide, CLHGPIELVSDPT, were synthesized on a Beckman 990 synthesizer using t-Boc methodology. The peptides were immobilized onto microtiter plates using the heterobifunctional crosslinker 3-(2-pyridyldithio)propionic acid N-hydroxysuccinimide ester (SPDP) as reported by Pierschbacher et al., Proc. Natl. Acad. USA, 80:1224-1227 (1983). Microtiter plates were coated with 20 µg/ml HSA for 2 hr. at room temperature, washed once with PBS and derivatized with 10 µg/ml SPDP for 1 hr. After washing, 100 µl of a 100 µg/ml cysteine containing peptide solution which had been recently dissolved was added to the wells and allowed to crosslink to the plates overnight at 4 °C. Unbound peptide was removed from plates by washing with PBS. To block non-reacted sites, the plates are coated with 100 µl of a 2.5 mg/ml BSA solution in PBS for 1 hr. at 37 °C. 100 µl of Jurkat cells (2.5 x 10^6 cells/ml) in DMEM plus BSA (2.5 mg/ml) was mixed with an appropriate concentration of the compound to be tested and the mixture was added to peptide coated dishes and incubated for 1 hr. at 37 °C. Generally 100, 20, 5 and 1.25 µM concentrations of the compound were tested.
Following this incubation the plates were washed once with PBS and the attached cells were fixed with 3% paraformaldehyde in PBS and stained with 0.5% toluidine blue in 3.7% formaldehyde. The cells were stained overnight at room temperature and the optical density at 590 nm of toluidine blue stained cells was determined using a vertical pathway spectrophotometer to quantitate attachment (VMAX Kinetic Microplate Reader, Molecular Devices, Menlo Park, CA). This procedure is a modification of a previously published method (Cardarelli et al, J. Biol. Chem., 269:18668-18673 (1994) and Cardarelli et al, Proc. Natl. Acad. Sci. USA, 83:2647-2651 (1986)).

In the next assay the target is T2, α4β1 integrin (Homo sapiens, UniProt P05556+P13612).
T2 construct: a T-cell line, Jurkat, known to express the α4β1 integrin; host or cells: Jurkat T-cell line
The assay is described as follows: Jurkat-Endothelial Cell Adhesion Assay (Jurkat EC). The assay is classed as cell-based. Conditions: Jurkat cell adhesion to IL-1 stimulated endothelial cell monolayers. On the procedure:
The following assay established the activity of the present compounds in inhibiting β1-mediated cell adhesion in a representative in vitro system. This assay measures the adhesive interactions of a T-cell line, Jurkat, known to express the α4β1 integrin, to endothelial monolayers in the presence of test compounds. The test compounds were added in increasing concentrations to T-cells and then the T-cell compound mixture was added to IL-1 stimulated endothelial cell monolayers. The plates were incubated, washed and the percentage of attached cells was quantitated.
Human umbilical vein endothelial cells were purchased from Clonetics (San Diego, CA.) at passage number 2. The cells were grown on 0.5% porcine skin gelatin pre-coated flasks (Sigma, St. Louis MO.) in EGM-UV media (Clonetics, San Diego, CA) supplemented with 10% fetal bovine serum. Cells are refed every 2-3 days reaching confluence by day 4 to 6. […] The endothelial cells are not used following passage 6.
The T-cell line Jurkat was obtained from American Type Tissue Culture Collection (Rockville, MD) and the cells were cultured in RPMI containing 10 % fetal calf serum. The cells were washed twice in Hank's Balanced Salt Solution (HBSS) and resuspended in Dulbecco's Minimal Eagle's Media (DMEM) containing 2.5 mg/ml Human Serum Albumin (HSA). Jurkat cells (1x10^6 cells/ml) were stained with 10 ng/ml BCECF-AM (Molecular Probes, Eugene, OR)) in HBSS without phenol red. The cells were loaded with BCECF for 60 minutes in the dark at 37°C, washed 2 times, and resuspended in DMEM-HSA solution.
Confluent endothelial monolayers, grown in 96-well tissue culture plates, were stimulated for 4 hr. at 37 °C with 0.1 ng/ml (∼50 U/ml) recombinant IL-1 (Amgen, Thousand Oaks, CA). Following this incubation, the monolayers were washed twice with HBSS and 0.1 ml of DMEM-HSA solution was added. Jurkat cells (5 x 10^5 cells) were combined with the appropriate concentration of the test compound and 0.1 ml of the Jurkat cell-compound mixture was added to the endothelial cell monolayers. Generally, 100, 20, 5 and 1.25 µM compound concentrations were tested. […] Following this incubation, the monolayers were washed twice with PBS containing 1 mM calcium chloride and 1 mM magnesium chloride' and the plates were read using a Millipore Cytofluor 2300 (Marlboro, MA.). Fluorescence in each well was measured as Arbitrary Fluorescence Units and percent adhesion in the absence of compound was adjusted to 100% and the % adhesion in the presence of compound was calculated. Monolayers were also fixed in 3% paraformaldehyde and evaluated microscopically to verify the adhesion. This procedure is a modification of a previously published method (Cardarelli et al., J. Biol. Chem. 269:18668-18673 (1994)).

T1 sequence (P13612 34-1032): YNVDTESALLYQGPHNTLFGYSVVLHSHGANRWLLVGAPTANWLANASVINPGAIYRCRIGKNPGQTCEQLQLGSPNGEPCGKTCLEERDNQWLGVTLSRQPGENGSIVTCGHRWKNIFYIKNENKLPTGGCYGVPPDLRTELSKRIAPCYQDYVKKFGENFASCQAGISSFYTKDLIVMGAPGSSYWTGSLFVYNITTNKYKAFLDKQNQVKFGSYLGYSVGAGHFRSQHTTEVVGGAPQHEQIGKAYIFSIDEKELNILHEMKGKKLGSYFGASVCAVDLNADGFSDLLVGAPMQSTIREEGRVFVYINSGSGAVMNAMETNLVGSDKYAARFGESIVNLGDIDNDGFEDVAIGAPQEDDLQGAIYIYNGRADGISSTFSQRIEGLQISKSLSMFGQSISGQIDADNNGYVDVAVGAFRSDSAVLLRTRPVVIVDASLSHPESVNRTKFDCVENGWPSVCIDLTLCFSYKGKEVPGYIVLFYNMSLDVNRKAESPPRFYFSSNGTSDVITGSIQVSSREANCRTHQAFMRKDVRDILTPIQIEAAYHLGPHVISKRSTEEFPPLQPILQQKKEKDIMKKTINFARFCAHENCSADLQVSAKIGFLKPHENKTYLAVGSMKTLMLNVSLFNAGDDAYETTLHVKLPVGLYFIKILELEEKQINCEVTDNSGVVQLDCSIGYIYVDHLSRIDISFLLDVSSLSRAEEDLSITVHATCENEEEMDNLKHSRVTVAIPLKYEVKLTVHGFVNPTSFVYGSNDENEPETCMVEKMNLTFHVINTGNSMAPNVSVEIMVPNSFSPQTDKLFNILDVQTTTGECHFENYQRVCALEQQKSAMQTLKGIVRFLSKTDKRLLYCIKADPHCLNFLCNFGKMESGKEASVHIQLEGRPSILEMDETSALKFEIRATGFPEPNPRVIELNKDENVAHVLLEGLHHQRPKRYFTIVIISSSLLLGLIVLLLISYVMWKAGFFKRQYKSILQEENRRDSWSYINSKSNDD
T1 sequence (P05556 21-798): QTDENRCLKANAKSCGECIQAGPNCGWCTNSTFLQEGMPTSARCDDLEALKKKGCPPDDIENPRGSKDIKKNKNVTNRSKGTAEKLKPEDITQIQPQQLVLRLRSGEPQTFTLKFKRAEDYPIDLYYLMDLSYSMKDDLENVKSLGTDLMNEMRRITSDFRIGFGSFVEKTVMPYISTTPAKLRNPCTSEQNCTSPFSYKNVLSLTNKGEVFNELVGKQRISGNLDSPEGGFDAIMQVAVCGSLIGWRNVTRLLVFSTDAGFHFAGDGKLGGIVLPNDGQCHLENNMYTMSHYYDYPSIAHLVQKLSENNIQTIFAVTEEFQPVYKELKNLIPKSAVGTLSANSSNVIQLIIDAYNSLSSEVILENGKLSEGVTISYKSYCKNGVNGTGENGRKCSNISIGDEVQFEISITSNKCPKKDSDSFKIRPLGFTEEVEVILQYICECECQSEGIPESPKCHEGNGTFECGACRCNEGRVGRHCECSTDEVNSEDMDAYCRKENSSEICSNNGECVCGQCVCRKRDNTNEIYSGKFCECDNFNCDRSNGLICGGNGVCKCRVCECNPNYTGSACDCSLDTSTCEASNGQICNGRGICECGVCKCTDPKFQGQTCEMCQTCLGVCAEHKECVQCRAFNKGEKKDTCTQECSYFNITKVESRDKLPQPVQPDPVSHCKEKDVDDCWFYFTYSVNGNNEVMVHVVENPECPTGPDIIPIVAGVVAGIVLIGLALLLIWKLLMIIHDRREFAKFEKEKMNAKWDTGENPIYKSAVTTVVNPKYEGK
T2 sequence (P13612 34-1032): as the sequence (P13612 34-1032) above
T2 sequence (P05556 21-798): as the sequence (P05556 21-798) above

For orientation: IC50 means the concentration needed to halve the response being measured. High values mean lower potency, low ones higher potency. As for `O=C(Nc1ccc(C[C@H](NC(=O)[C@@H]2CCC[C@H]2C(=O)O)C(=O)O)cc1)c1c(Cl)cccc1Cl` [Example 9], the figures for the IC50 against α4β1 and on α4β1 integrin were 500 to 1000 nM and 800 to 5000 nM, respectively.

Regarding `CC(=O)c1cccc(OC(C)(C)C(=O)N[C@@H](Cc2ccc(NC(=O)c3c(Cl)cccc3Cl)cc2)C(=O)O)c1` [Example 19], the IC50 against α4β1 lay in the range of 500 to 1000 nM; on α4β1 integrin, 800 to 5000 nM.

On to `CC(C)(Sc1ccccc1C(=O)O)C(=O)N[C@@H](Cc1ccc(NC(=O)c2c(Cl)cccc2Cl)cc1)C(=O)O` [Example 25], for which the half-inhibitory concentration (IC50) against α4β1 was 500 to 1000 nM; against α4β1 integrin, at most 800 nM.

For the compound `O=C(O)/C=C\C(=O)Nc1cccc(C(=O)N[C@@H](Cc2ccc(NC(=O)c3c(Cl)cccc3Cl)cc2)C(=O)O)c1` [Example 36], the IC50 against α4β1 is 500 to 1000 nM; on α4β1 integrin it was 800 to 5000 nM.

With `O=C(O)/C=C/C(=O)Nc1cccc(C(=O)N[C@@H](Cc2ccc(NC(=O)c3c(Cl)cccc3Cl)cc2)C(=O)O)c1` [Example 37], the concentration for half-maximal inhibition (IC50) fell in the range of 500 to 1000 nM at α4β1 and 5000 to 10000 nM against α4β1 integrin.

Take `O=C(N[C@@H](Cc1ccc(NC(=O)c2c(Cl)cccc2Cl)cc1)C(=O)O)c1cccc(NC(=O)C2CCCC(C(=O)O)C2)c1` (some centres unmarked) [Example 38]: the half-maximal inhibitory concentration (IC50) against α4β1 lay in the range of 500 to 1000 nM; at α4β1 integrin it was 800 to 5000 nM.

`O=C(O)c1cncc(C(=O)Nc2cccc(C(=O)N[C@@H](Cc3ccc(NC(=O)c4c(Cl)cccc4Cl)cc3)C(=O)O)c2)c1` [Example 44]: the IC50 against α4β1 fell in the range of 80 to 500 nM; on α4β1 integrin, 5000 to 10000 nM.

As for `O=C(O)CCC(=O)NC1(C(=O)N[C@@H](Cc2ccc(NC(=O)c3c(Cl)cccc3Cl)cc2)C(=O)O)CCCCC1` [Example 46], the IC50 on α4β1 fell in the range of 80 to 500 nM; against α4β1 integrin, 800 to 5000 nM.

As to `O=C(O)CC1(CC(=O)NC2(C(=O)N[C@@H](Cc3ccc(NC(=O)c4c(Cl)cccc4Cl)cc3)C(=O)O)CCCCC2)CCCC1` [Example 47], the IC50 lay within 80 to 500 nM on α4β1 and 5000 to 10000 nM on α4β1 integrin.

For the compound `CC(C)(CC(=O)O)CC(=O)NC1(C(=O)N[C@@H](Cc2ccc(NC(=O)c3c(Cl)cccc3Cl)cc2)C(=O)O)CCCCC1` [Example 48], the IC50 lay in the range of 80 to 500 nM against α4β1 and 800 to 5000 nM against α4β1 integrin.

In the case of `O=C(O)/C=C\C(=O)NC1(C(=O)N[C@@H](Cc2ccc(NC(=O)c3c(Cl)cccc3Cl)cc2)C(=O)O)CCCCC1` [Example 49], the IC50 on α4β1 was 80 to 500 nM; against α4β1 integrin it was at most 800 nM.

With `O=C(O)/C=C/C(=O)NC1(C(=O)N[C@@H](Cc2ccc(NC(=O)c3c(Cl)cccc3Cl)cc2)C(=O)O)CCCCC1` [Example 50], the figures for the IC50 against α4β1 and against α4β1 integrin were 500 to 1000 nM and 5000 to 10000 nM, respectively.

With `COCCC(=O)NC1(C(=O)N[C@@H](Cc2ccc(NC(=O)c3c(Cl)cccc3Cl)cc2)C(=O)O)CCCCC1` [Example 51], the results for the IC50 on α4β1 and against α4β1 integrin were at most 80 nM and 800 to 5000 nM, respectively.

For `O=C(Nc1ccc(C[C@H](NC(=O)C2(NC(=O)C3CCCC(C(=O)O)C3)CCCCC2)C(=O)O)cc1)c1c(Cl)cccc1Cl` (some centres unmarked) [Example 52], the values for the IC50 against α4β1 and against α4β1 integrin were at most 80 nM and 800 to 5000 nM, respectively.

For the compound `CC(=O)CCC(=O)NC1(C(=O)N[C@@H](Cc2ccc(NC(=O)c3c(Cl)cccc3Cl)cc2)C(=O)O)CCCCC1` [Example 53], the IC50 against α4β1 was at most 80 nM; against α4β1 integrin it was at most 800 nM.

Take `COc1ccc(C(=O)NC2(C(=O)N[C@@H](Cc3ccc(NC(=O)c4c(Cl)cccc4Cl)cc3)C(=O)O)CCCCC2)cc1OC` [Example 55]: the IC50 on α4β1 is 80 to 500 nM; on α4β1 integrin, 800 to 5000 nM.

`O=C(O)c1ccccc1C(=O)NC1(C(=O)N[C@@H](Cc2ccc(NC(=O)c3c(Cl)cccc3Cl)cc2)C(=O)O)CCCCC1` [Example 56]: the IC50 against α4β1 was 80 to 500 nM; against α4β1 integrin it was 800 to 5000 nM.

Take `O=C(O)c1cccc(C(=O)NC2(C(=O)N[C@@H](Cc3ccc(NC(=O)c4c(Cl)cccc4Cl)cc3)C(=O)O)CCCCC2)c1` [Example 57]: the figures for the IC50 against α4β1 and against α4β1 integrin were 80 to 500 nM and at most 800 nM, respectively.

With `O=C(O)c1cncc(C(=O)NC2(C(=O)N[C@@H](Cc3ccc(NC(=O)c4c(Cl)cccc4Cl)cc3)C(=O)O)CCCCC2)c1` [Example 59], the IC50 was 80 to 500 nM against α4β1 and 800 to 5000 nM at α4β1 integrin.

In the case of `O=C(NC1(C(=O)N[C@@H](Cc2ccc(NC(=O)c3c(Cl)cccc3Cl)cc2)C(=O)O)CCCCC1)c1cccnc1` [Example 61], the concentration for half-maximal inhibition (IC50) against α4β1 is 80 to 500 nM; against α4β1 integrin it was at most 800 nM.

For the compound `O=C(O)c1cccc(C(=O)NC2(C(=O)N[C@@H](Cc3ccc(NC(=O)c4c(Cl)cccc4Cl)cc3)C(=O)O)CCCCC2)n1` [Example 62], the IC50 against α4β1 is 80 to 500 nM; against α4β1 integrin, 800 to 5000 nM.

For `O=C(O)c1ccc(C(=O)NC2(C(=O)N[C@@H](Cc3ccc(NC(=O)c4c(Cl)cccc4Cl)cc3)C(=O)O)CCCCC2)nc1` [Example 63], the concentration for half-maximal inhibition (IC50) against α4β1 was 80 to 500 nM; on α4β1 integrin it was at most 800 nM.

For `O=C(NC1(C(=O)N[C@@H](Cc2ccc(NC(=O)c3c(Cl)cccc3Cl)cc2)C(=O)O)CCCCC1)c1cc(O)c2ccccc2n1` [Example 64], the values for the IC50 at α4β1 and against α4β1 integrin were 80 to 500 nM and 800 to 5000 nM, respectively.

On to `O=C(NC1(C(=O)N[C@@H](Cc2ccc(NC(=O)c3c(Cl)cccc3Cl)cc2)C(=O)O)CCCCC1)c1cc(C(=O)O)[nH]n1` [Example 65], for which the IC50 was 80 to 500 nM at α4β1 and 800 to 5000 nM at α4β1 integrin.

`O=C(Nc1ccc(C[C@H](NC(=O)C2(NC(=O)C3NC(C(=O)O)CS3)CCCCC2)C(=O)O)cc1)c1c(Cl)cccc1Cl` (some centres unmarked) [Example 66]: the IC50 on α4β1 is 80 to 500 nM; against α4β1 integrin it was at most 800 nM.

`O=C(NC1(C(=O)N[C@@H](Cc2ccc(NC(=O)c3c(Cl)cccc3Cl)cc2)C(=O)O)CCCCC1)c1ccc([N+](=O)[O-])o1` [Example 67]: the results for the IC50 against α4β1 and at α4β1 integrin were 80 to 500 nM and at most 800 nM, respectively.

For `O=C(Nc1ccc(C[C@H](NC(=O)C2(NC(=O)C3CCCO3)CCCCC2)C(=O)O)cc1)c1c(Cl)cccc1Cl` (some centres unmarked) [Example 68], the IC50 against α4β1 was 80 to 500 nM; at α4β1 integrin, at most 800 nM.

Regarding `O=C(Nc1ccc(C[C@H](NC(=O)C2(NC(=O)C3CCOC3)CCCCC2)C(=O)O)cc1)c1c(Cl)cccc1Cl` (some centres unmarked) [Example 69], the IC50 was 80 to 500 nM at α4β1 and at most 800 nM against α4β1 integrin.

As to `O=C(NC1(C(=O)N[C@@H](Cc2ccc(NC(=O)c3c(Cl)cccc3Cl)cc2)C(=O)O)CC2CCC1C2)c1cccnc1` (some centres unmarked) [Example 70], the IC50 lay within 80 to 500 nM at α4β1 and 800 to 5000 nM at α4β1 integrin.

With `O=C(O)c1cccc(C(=O)NC2(C(=O)N[C@@H](Cc3ccc(NC(=O)c4c(Cl)cccc4Cl)cc3)C(=O)O)CC3CCC2C3)n1` (some centres unmarked) [Example 71], the results for the IC50 on α4β1 and against α4β1 integrin were 80 to 500 nM and 800 to 5000 nM, respectively.

For the compound `O=C(O)c1ccc(C(=O)NC2(C(=O)N[C@@H](Cc3ccc(NC(=O)c4c(Cl)cccc4Cl)cc3)C(=O)O)CC3CCC2C3)nc1` (some centres unmarked) [Example 72], the IC50 on α4β1 was 80 to 500 nM; against α4β1 integrin, at most 800 nM.
